system: whole cells (NMuLi, C2C12, and L6 cells, isolated cardiomyocytes, human primary fibroblasts); assay: Oxygen consumption rate (OCR) in whole cells, Seahorse XF-24 Flux Analyzer; assay type: cell-based; details: increase in OCR; binned EC50 values
Procedure: Biological activities of the compounds synthesized is determined by determining increase in oxygen consumption rate (OCR).
Oxygen consumption rate (OCR) in whole cells is measured in general accordance with the method of Kenwood B M et al. (Mol. Met. (2014) 3:114-123).
OCR is measured using a Seahorse XF-24 Flux Analyzer (Seahorse Biosciences, North Billerica, MA). NMuLi, C2C12, and L6 cells are seeded in a Seahorse 24-well tissue culture plate at a density of 3.5×10^4 cells/well, isolated cardiomyocytes at a density of 4×10^4 cells/well, and human primary fibroblasts at a density of 1.1×10^4 cells/well. The cells are then allowed to adhere for 24 h. Prior to the assay, the media is changed to unbuffered DMEM containing pyruvate and glutamine (Gibco #12800-017, pH=7.4 at 37° C.) and the cells are equilibrated for 30 mins at 37°° C. Compounds are injected during the assay and OCR is measured using 2 min measurement periods.
2-3 wells are used per condition and averaged over three plates (n=6-9). Statistical significance is determined by two-way ANOVA with Bonferroni's posttest.
Activities are reported as binned EC50 values: A=5 μM or less; B=>5 to 20 μM; C=over 20 μM; NA=not active.

Question: `Oc1nc2nonc2nc1NC12CC3CC(CC(C3)C1)C2` [1-81, 6-(((3S,5S,7S)-adamantan-1-yl)amino)-[1,2,5]oxadiazolo[3,4-b]pyrazin-5-ol] was tested. Which EC50 did it give?
Answer: Its EC50 is 5 to 20 µM.

Question: `CC12CC3CC(C)(C1)CC(Nc1nc4nonc4nc1O)(C3)C2` [1-82, 6-(((1R,3R,5S,7R)-3,5-dimethyladamantan-1-yl)amino)-[1,2,5]oxadiazolo[3,4-b]pyrazin-5-ol] was tested. Which EC50 did it give?
Answer: The EC50 was ≤ 5 µM.

Question: With `CC(Nc1nc2nonc2nc1O)C12CC3CC(CC(C3)C1)C2` [1-83, 6-((1-((1S,3S)-adamantan-1-yl)ethyl)amino)-[1,2,5]oxadiazolo[3,4-b]pyrazin-5-ol] as the molecule, how does the EC50 read?
Answer: The EC50 was 5 to 20 µM.

Question: `Oc1nc2nonc2nc1NC1C2CC3CC(C2)CC1C3` [1-85, 6-(((1R,3R,5R,7R)-adamantan-2-yl)amino)-[1,2,5]oxadiazolo[3,4-b]pyrazin-5-ol] was tested. Which EC50 did it give?
Answer: The EC50 was > 20 µM.

Question: How did the EC50 turn out when `Oc1nc2nonc2nc1Nc1ccc(OCc2ccccc2)cc1` [1-86, 6-((4-(benzyloxy)phenyl)amino)-[1,2,5]oxadiazolo[3,4-b]pyrazin-5-ol] was run?
Answer: Its EC50 is ≤ 5 µM.

Question: With `Oc1nc2nonc2nc1Nc1ccc2c(c1)OCO2` [1-87, 6-(benzo[d][1,3]dioxol-5-ylamino)-[1,2,5]oxadiazolo[3,4-b]pyrazin-5-ol] as the molecule, how does the EC50 read?
Answer: Its EC50 is > 20 µM.

Question: For `Oc1nc2nonc2nc1Nc1ccc(OCC(F)(F)F)cc1` [1-88, 6-((4-(2,2,2-Trifluoroethoxy)phenyl)amino)-[1,2,5]oxadiazolo[3,4-b]pyrazin-5-ol], which EC50 is on record?
Answer: Its EC50 is > 20 µM.

Question: `Cc1cc(Nc2nc3nonc3nc2O)ccc1OCC(F)(F)F` [1-89, 6-((3-Methyl-4-(2,2,2-trifluoroethoxy)phenyl)amino)-[1,2,5]oxadiazolo[3,4-b]pyrazin-5-ol] was tested. Which EC50 did it give?
Answer: Its EC50 is 5 to 20 µM.

Question: Which EC50 does the source give for `Oc1nc2nonc2nc1Nc1ccc(OCC(F)(F)F)c(F)c1` [1-90, 6-((3-Fluoro-4-(2,2,2-trifluoroethoxy)phenyl)amino)-[1,2,5]oxadiazolo[3,4-b]pyrazin-5-ol] here?
Answer: Its EC50 is 5 to 20 µM.

Question: How did the EC50 turn out when `Oc1nc2nonc2nc1Nc1ccc(OCC(F)(F)F)c(C(F)(F)F)c1` [1-91, 6-((4-(2,2,2-Trifluoroethoxy)-3-(trifluoromethyl)phenyl)amino)-[1,2,5]oxadiazolo[3,4-b]pyrazin-5-ol] was run?
Answer: The EC50 was 5 to 20 µM.

Question: Which EC50 does the source give for `Oc1nc2nonc2nc1Nc1ccc(OCC2CC2)c(C(F)(F)F)c1` [1-92, 6-((4-(cyclopropylmethoxy)-3-(trifluoromethyl)phenyl)amino)-[1,2,5]oxadiazolo[3,4-b]pyrazin-5-ol] here?
Answer: The EC50 was ≤ 5 µM.

Question: `Oc1nc2nonc2nc1Nc1ccc2c(c1)OC(F)(F)O2` [1-93, 6-((2,2-difluorobenzo[d][1,3]dioxol-5-yl)amino)-[1,2,5]oxadiazolo[3,4-b]pyrazin-5-ol] was tested. Which EC50 did it give?
Answer: The EC50 was 5 to 20 µM.

Question: How did the EC50 turn out when `COc1ccccc1Nc1nc2nonc2nc1O` [1-94, 6-((2-methoxyphenyl)amino)-[1,2,5]oxadiazolo[3,4-b]pyrazin-5-ol] was run?
Answer: The EC50 was > 20 µM.

Question: `CCCCOc1ccc(Nc2nc3nonc3nc2O)cc1` [1-95, 6-((4-butoxyphenyl)amino)-[1,2,5]oxadiazolo[3,4-b]pyrazin-5-ol] was tested. Which EC50 did it give?
Answer: The EC50 was ≤ 5 µM.

Question: How did the EC50 turn out when `CCCCOc1cccc(Nc2nc3nonc3nc2O)c1` [1-96, 6-((3-butoxyphenyl)amino)-[1,2,5]oxadiazolo[3,4-b]pyrazin-5-ol] was run?
Answer: Its EC50 is ≤ 5 µM.

Question: `Oc1nc2nonc2nc1Nc1cccc(OCc2ccc(C(F)(F)F)cc2)c1` [1-97, 6-((3-((4-(Trifluoromethyl)benzyl)oxy)phenyl)amino)-[1,2,5]oxadiazolo[3,4-b]pyrazin-5-ol] was tested. Which EC50 did it give?
Answer: The EC50 was ≤ 5 µM.

Question: With `O=C(COc1cccc(Nc2nc3nonc3nc2O)c1)c1ccc(OC(F)(F)F)cc1` [1-98, 2-(3-((6-hydroxy-[1,2,5]oxadiazolo[3,4-b]pyrazin-5-yl)amino)phenoxy)-1-(4-(trifluoromethoxy)phenyl)ethan-1-one] as the molecule, how does the EC50 read?
Answer: Its EC50 is 5 to 20 µM.

Question: Which EC50 does the source give for `Oc1nc2nonc2nc1Nc1ccc(OCCCC(F)(F)F)c(F)c1` [1-99, 6-((3-fluoro-4-(4,4,4-trifluorobutoxy)phenyl)amino)-[1,2,5]oxadiazolo[3,4-b]pyrazin-5-ol] here?
Answer: Its EC50 is ≤ 5 µM.

Question: With `Oc1nc2nonc2nc1Nc1ccc(OCCCC(F)(F)F)c(C(F)(F)F)c1` [1-100, 6-((4-(4,4,4-trifluorobutoxy)-3-(trifluoromethyl)phenyl)amino)-[1,2,5]oxadiazolo[3,4-b]pyrazin-5-ol] as the molecule, how does the EC50 read?
Answer: Its EC50 is ≤ 5 µM.

Question: Which EC50 does the source give for `Oc1nc2nonc2nc1Nc1ccc(-c2ccccc2)cc1` [1-103, 6-([1,1′-biphenyl]-4-ylamino)-[1,2,5]oxadiazolo[3,4-b]pyrazin-5-ol] here?
Answer: Its EC50 is ≤ 5 µM.

Question: For `Oc1nc2nonc2nc1Nc1cccc(-c2ccccc2)c1` [1-104, 6-([1,1′-biphenyl]-3-ylamino)-[1,2,5]oxadiazolo[3,4-b]pyrazin-5-ol], which EC50 is on record?
Answer: Its EC50 is ≤ 5 µM.

Question: `Oc1nc2nonc2nc1Nc1ccc(-c2ccc(OC(F)(F)F)cc2)cc1` [1-105, 6-((4′-(trifluoromethoxy)-[1,1′-biphenyl]-4-yl)amino)-[1,2,5]oxadiazolo[3,4-b]pyrazin-5-ol] was tested. Which EC50 did it give?
Answer: The EC50 was 5 to 20 µM.

Question: How did the EC50 turn out when `Oc1nc2nonc2nc1Nc1ccc(-c2cccs2)cc1` [1-106, 6-((4-(thiophen-2-yl)phenyl)amino)-[1,2,5]oxadiazolo[3,4-b]pyrazin-5-ol] was run?
Answer: Its EC50 is 5 to 20 µM.

Question: Which EC50 does the source give for `Oc1nc2nonc2nc1Nc1ccc(-c2ccc(C(F)(F)F)nc2)cc1` [1-107, 6-((4-(6-(trifluoromethyl)pyridin-3-yl)phenyl)amino)-[1,2,5]oxadiazolo[3,4-b]pyrazin-5-ol] here?
Answer: Its EC50 is 5 to 20 µM.

Question: `Oc1nc2nonc2nc1Nc1ccc(-c2ccc(OC(F)F)cc2)cc1` [1-108, 6-((4′-(difluoromethoxy)-[1,1′-biphenyl]-4-yl)amino)-[1,2,5]oxadiazolo[3,4-b]pyrazin-5-ol] was tested. Which EC50 did it give?
Answer: Its EC50 is ≤ 5 µM.

Question: Which EC50 does the source give for `Oc1nc2nonc2nc1Nc1ccc(-c2ccc(F)c(C(F)F)c2)cc1` [1-109, 6-((3′-(difluoromethyl)-4′-fluoro-[1,1′-biphenyl]-4-yl)amino)-[1,2.5]oxadiazolo[3.4-b]pyrazin-5-ol] here?
Answer: The EC50 was ≤ 5 µM.

Question: For `Oc1nc2nonc2nc1Nc1ccc(-c2cccc(C(F)(F)F)c2)cc1` [1-110, 6-((3′-(trifluoromethyl)-[1,1′-biphenyl]-4-yl)amino)-[1,2,5]oxadiazolo[3,4-b]pyrazin-5-ol], which EC50 is on record?
Answer: Its EC50 is 5 to 20 µM.

Question: Which EC50 does the source give for `Oc1nc2nonc2nc1Nc1ccc(-c2cccc(OC(F)(F)F)c2)cc1` [1-111, 6-((3′-(trifluoromethoxy)-[1,1′-biphenyl]-4-yl)amino)-[1,2,5]oxadiazolo[3,4-b]pyrazin-5-ol] here?
Answer: Its EC50 is 5 to 20 µM.

Question: With `Oc1nc2nonc2nc1Nc1cccc(-c2ccc(OC(F)F)cc2)c1` [1-113, 6-((4′-(difluoromethoxy)-[1,1′-biphenyl]-3-yl)amino)-[1,2,5]oxadiazolo[3,4-b]pyrazin-5-ol] as the molecule, how does the EC50 read?
Answer: Its EC50 is ≤ 5 µM.

Question: How did the EC50 turn out when `Oc1nc2nonc2nc1Nc1cccc(-c2ccc(F)c(C(F)F)c2)c1` [1-114, 6-((3′-(difluoromethyl)-4′-fluoro-[1,1′-biphenyl]-3-yl)amino)-[1,2,5]oxadiazolo[3,4-b]pyrazin-5-ol] was run?
Answer: The EC50 was ≤ 5 µM.

Question: How did the EC50 turn out when `Oc1nc2nonc2nc1Nc1cccc(-c2ccc(C(F)(F)F)nc2)c1` [1-115, 6-((3-(6-(trifluoromethyl)pyridin-3-yl)phenyl)amino)-[1,2,5]oxadiazolo[3,4-b]pyrazin-5-ol] was run?
Answer: Its EC50 is > 20 µM.

Question: For `Oc1nc2nonc2nc1Nc1ccc(F)c(-c2ccc(C(F)(F)F)nc2)c1` [1-116, 6-((4-fluoro-3-(6-(trifluoromethyl)pyridin-3-yl)phenyl)amino)-[1,2,5]oxadiazolo[3,4-b]pyrazin-5-ol], which EC50 is on record?
Answer: The EC50 was 5 to 20 µM.

Question: Which EC50 does the source give for `Oc1nc2nonc2nc1Nc1ccc(OC(F)(F)F)c(-c2ccc(C(F)(F)F)nc2)c1` [1-117, 6-((4-(trifluoromethoxy)-3-(6-(trifluoromethyl)pyridin-3-yl)phenyl)amino)-[1,2,5]oxadiazolo[3,4-b]pyrazin-5-ol] here?
Answer: Its EC50 is 5 to 20 µM.

Question: `CC1(C)c2ccccc2-c2ccc(Nc3nc4nonc4nc3O)cc21` [1-118, 6-((9,9-dimethyl-9H-fluoren-2-yl)amino)-[1,2,5]oxadiazolo[3,4-b]pyrazin-5-ol] was tested. Which EC50 did it give?
Answer: Its EC50 is ≤ 5 µM.

Question: `Oc1nc2nonc2nc1Nc1cccc(-c2cc(F)cc(F)c2)c1` [1-119, 6-((3′,5′-difluoro-[1,1′-biphenyl]-3-yl)amino)-[1,2,5]oxadiazolo[3,4-b]pyrazin-5-ol] was tested. Which EC50 did it give?
Answer: Its EC50 is ≤ 5 µM.

Question: `Oc1nc2nonc2nc1Nc1cccc(-c2ccc3c(c2)OCO3)c1` [1-120, 6-((3-(benzo[d][1,3]dioxol-5-yl)phenyl)amino)-[1,2,5]oxadiazolo[3,4-b]pyrazin-5-ol] was tested. Which EC50 did it give?
Answer: The EC50 was ≤ 5 µM.

Question: Which EC50 does the source give for `Oc1nc2nonc2nc1Nc1ccc(-c2cc(F)cc(F)c2)cc1` [1-121, 6-((3′,5′-difluoro-[1,1′-biphenyl]-4-yl)amino)-[1,2,5]oxadiazolo[3,4-b]pyrazin-5-ol] here?
Answer: Its EC50 is ≤ 5 µM.

Question: Which EC50 does the source give for `Oc1nc2nonc2nc1Nc1ccc(-c2ccc3c(c2)OCO3)cc1` [1-122, 6-((4-(benzo[d][1,3]dioxol-5-yl)phenyl)amino)-[1,2,5]oxadiazolo[3,4-b]pyrazin-5-ol] here?
Answer: Its EC50 is > 20 µM.

Question: `N#Cc1cc(-c2ccc(Nc3nc4nonc4nc3O)cc2)cs1` [1-123, 4-(4-((6-hydroxy-[1,2,5]oxadiazolo[3,4-b]pyrazin-5-yl)amino)phenyl)thiophene-2-carbonitrile] was tested. Which EC50 did it give?
Answer: Its EC50 is ≤ 5 µM.

Question: How did the EC50 turn out when `Oc1nc2nonc2nc1Nc1ccc(-c2ccc(F)cc2)cc1F` [1-124, 6-((3,4′-difluoro-[1,1′-biphenyl]-4-yl)amino)-[1,2,5]oxadiazolo[3,4-b]pyrazin-5-ol] was run?
Answer: Its EC50 is ≤ 5 µM.

Question: `Oc1nc2nonc2nc1Nc1ccc(-c2ccc(F)cc2)c(F)c1` [1-125, 6-((2,4′-difluoro-[1,1′-biphenyl]-4-yl)amino)-[1,2,5]oxadiazolo[3,4-b]pyrazin-5-ol] was tested. Which EC50 did it give?
Answer: The EC50 was ≤ 5 µM.

— patent publication US12655156B2, “Oxadiazolopyrazines and oxadiazolopyridines useful as mitochondrial uncouplers” (Virginia Tech Intellectual Properties, Inc., priority 2018, dated 2026)
